Experiments:
[1] = tested on: focal cerebral ischemia induced by MCAO (middle cerebral artery occlusion) in rats; assay: focal cerebral ischemia induced by MCAO (middle cerebral artery occlusion) in rats; type: in vivo, SD rat; details: induced by ADP-2Na, final concentration of ADP, turbidimetry; 50mg/kg gavage once daily for 5 days; X±SD
Experimental: Male SD rats, weighing 240~290g, grouping and dosages were as above. Additionally, a positive control group, i.e., nimodipine 50mg/kg group was set up. Animals of each group were gavage once daily for consecutive 5 days in predetermined dosage. At 30 minute after the last administration, the animals were anesthetized with 12% chloral hydrate in 350 mg/kg via intraperitoneal injection. The animals were kept left lateral position and the skin was cut along the middle point between right ear and eye line. Temporalis was separated and cheekbone was sheared. A holl was drilled with a dental drill in front of zygomatic root and MCA was exposed. […]
The animals were scored on neurological functions at 6 hour and 24 hour after modeling, according to behavior such as movement. […]
24 hour after modeling and after neurological scoring, blood was taken via carotid artery intubation in duplicate. For one sample, serum was separated and the activity of AST and LDH was determined according to the method of the kit; for another sample, it was treated with 3.8% sodium citrate in 1:9 for the purpose of anticoagulation, centrifuged at 1000rpm for 5 minutes to prepare platelet rich plasma (PRP), and centrifuged at 3500rpm for 10 minutes to prepare platelet poor plasma (PPP). […]

[2] = comparative study on solubilities (China Pharmacopeia 2005 terms); type: physicochemical; details: terms per China Pharmacopeia 2005
[3] = background statement; cited from earlier work

| Structure (SMILES) | rate of platelet aggregation [1] | solubility in 0.01NNaOH ([2]; 0.01NNaOH) | solubility in 95%EtOH ([2]; 95%EtOH) | solubility in H2O ([2]; H2O) | solubility in MeOH ([2]; MeOH) | solubility in n-BuOH ([2]; n-BuOH) | solubility in water [3] |
| --- | --- | --- | --- | --- | --- | --- | --- |
| COCCOC(=O)C1=C(C)NC(C)=C(C(=O)OC(C)C)C1c1cccc([N+](=O)[O-])c1 (stereo not shown) [nimodipine, reference compound] | 54.15±7.76% |  |  |  |  |  |  |
| O=C(O)[C@H]1O[C@@H](Oc2cc3oc(-c4ccc(O)cc4)cc(=O)c3c(O)c2O)[C@H](O)[C@@H](O)[C@@H]1O [scutellarin] |  | soluble | slightly soluble | very slightly soluble | slightly soluble | slightly soluble | sparingly soluble |

From patent EP2292242B1, “A SCUTELLARIN DERIVATIVE, THE PREPARING PROCESS, THE PHARMACEUTICAL COMPOSITION AND THE USE THEREOF” (Kunming Pharmaceutical Corp., priority 2008, dated 2009)
